Columns and labels:
[1] = test system: normal NK cells expanded with K562-aAPC; experiment: percent inhibition of viability; higher = more inhibition; details: 72 h, IL-2 2.5 ng/mL
Description: (§1)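 Drug sensitivity and resistance testing on K562-aAPC-expanded normal NK cells: 5 concentrations (10-fold steps over a 10,000-fold range), 72 h at 37 °C, viability by CellTiter-Glo normalised to DMSO and benzethonium chloride controls; DSS from the fitted curve.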

DERL-7 (IL-2 2.5 ng/mL) [2] = experiment: as above; details: 72 h
IMC-1 (IL-2 20 ng/mL) [3] = experiment: as above; details: 72 h
KAI3 (IL-2 2.5 ng/mL) [4] = experiment: as above; details: 72 h
KHYG-1 (IL-2 2.5 ng/mL) [5] = experiment: as above; details: 72 h
NK-92 (IL-2 2.5 ng/mL) [6] = experiment: as above; details: 72 h
NK-YS (IL-2 2.5 ng/mL) [7] = experiment: as above; details: 72 h
NKL (IL-2 2.5 ng/mL) [8] = experiment: as above; details: 72 h
SNK-6 (IL-2 2.5 ng/mL) [9] = experiment: as above; details: 72 h
YT (IL-2 2.5 ng/mL) [10] = experiment: as above; details: 72 h
[11] = test system: normal primary NK cells, pool 1 (3 donors) (IL-2 2.5 ng/mL); experiment: as above; details: 72 h
[12] = test system: normal primary NK cells, pool 1 (3 donors), resting (IL-2 0 ng/mL); experiment: as above; details: 72 h
[13] = test system: normal primary NK cells, pool 2 (3 donors) (IL-2 2.5 ng/mL); experiment: as above; details: 72 h
[14] = test system: normal primary NK cells, pool 3 (3 donors) (IL-2 2.5 ng/mL); experiment: as above; details: 72 h
[15] = test system: normal NK cells expanded with K562-aAPC; experiment: drug sensitivity score (DSS) (DSS units); higher = more sensitive; extreme values may be limits of the assay; details: 72 h; IL-2 2.5 ng/mL
Description: as §1

DERL-7 (IL-2 2.5 ng/mL) [16] = experiment: as above; details: 72 h
IMC-1 (IL-2 20 ng/mL) [17] = experiment: as above; details: 72 h
KAI3 (IL-2 2.5 ng/mL) [18] = experiment: as above; details: 72 h
KHYG-1 (IL-2 2.5 ng/mL) [19] = experiment: as above; details: 72 h
NK-92 (IL-2 2.5 ng/mL) [20] = experiment: as above; details: 72 h
NK-YS (IL-2 2.5 ng/mL) [21] = experiment: as above; details: 72 h
NKL (IL-2 2.5 ng/mL) [22] = experiment: as above; details: 72 h
SNK-6 (IL-2 2.5 ng/mL) [23] = experiment: as above; details: 72 h
YT (IL-2 2.5 ng/mL) [24] = experiment: as above; details: 72 h
[25] = test system: normal primary NK cells, pool 1 (3 donors) (IL-2 2.5 ng/mL); experiment: as above; details: 72 h
[26] = test system: normal primary NK cells, pool 1 (3 donors), resting (IL-2 0 ng/mL); experiment: as above; details: 72 h
[27] = test system: normal primary NK cells, pool 2 (3 donors) (IL-2 2.5 ng/mL); experiment: as above; details: 72 h
[28] = test system: normal primary NK cells, pool 3 (3 donors) (IL-2 2.5 ng/mL); experiment: as above; details: 72 h

COC1=CC(c2cc3ccccc3[nH]2)=N/C1=C\c1[nH]c(C)cc1C [Obatoclax] (max concentration tested 10000 nM)
percent inhibition of viability [%]
Details | 1 nM | 10 nM | 100 nM | 1000 nM | 10000 nM
DERL-7 (IL-2 2.5 ng/mL) [2] | -3.53 | -2.23 | 2.25 | 2.35 | 36.5
IMC-1 (IL-2 20 ng/mL) [3] | -4.53 | -1.62 | -0.16 | 4.8 | 18.5
KAI3 (IL-2 2.5 ng/mL) [4] | 2.78 | 2.46 | -1.6 | 14.8 | 41.8
KHYG-1 (IL-2 2.5 ng/mL) [5] | -3.69 | -0.55 | 0.4 | 15.8 | 35.2
NK-92 (IL-2 2.5 ng/mL) [6] | -5.85 | 7.72 | 16.4 | 50 | 77.5
NK-YS (IL-2 2.5 ng/mL) [7] | -4.05 | -1.77 | 1.63 | 13.8 | 26.2
NKL (IL-2 2.5 ng/mL) [8] | -2.53 | -11.6 | 25.5 | 67.5 | 84.2
SNK-6 (IL-2 2.5 ng/mL) [9] | -0.44 | 6.97 | -8.81 | 6.17 | 16.6
YT (IL-2 2.5 ng/mL) [10] | 0.99 | 0.48 | 1.63 | 21.2 | 48.1
[1] | 0.42 | 2.59 | 3.2 | 6.46 | 21.2
[11] | -0.48 | 0.81 | -4.45 | 6.95 | 39.1
[12] | -9.87 | -1.78 | -10.3 | 10 | 59
[13] | -4.7 | -5.9 | 5.89 | 6.17 | 37.3
[14] | -3.41 | -11.5 | 3.42 | 9.76 | 34.5

Details | drug sensitivity score
DERL-7 (IL-2 2.5 ng/mL) [16] | 2.1
IMC-1 (IL-2 20 ng/mL) [17] | 1.04
KAI3 (IL-2 2.5 ng/mL) [18] | 4.2
KHYG-1 (IL-2 2.5 ng/mL) [19] | 3.67
NK-92 (IL-2 2.5 ng/mL) [20] | 11.6
NK-YS (IL-2 2.5 ng/mL) [21] | 2.34
NKL (IL-2 2.5 ng/mL) [22] | 15.6
SNK-6 (IL-2 2.5 ng/mL) [23] | 0.94
YT (IL-2 2.5 ng/mL) [24] | 5.06
[15] | 1.2
[25] | 3.07
[26] | 4.87
[27] | 2.84
[28] | 2.91

C=CCc1cccc(/C=N/NC(=O)CN2CCN(Cc3ccccc3)CC2)c1O [PAC-1] (max concentration tested 10000 nM)
percent inhibition of viability [%]
Details | 1 nM | 10 nM | 100 nM | 1000 nM | 10000 nM
DERL-7 (IL-2 2.5 ng/mL) [2] | -1.36 | 2.12 | -2.94 | 12.2 | 80.9
IMC-1 (IL-2 20 ng/mL) [3] | -3.49 | -2.97 | 1.56 | 1.88 | 100
KAI3 (IL-2 2.5 ng/mL) [4] | -5.72 | -3.85 | 4.89 | 62.6 | 96.5
KHYG-1 (IL-2 2.5 ng/mL) [5] | -1.19 | -1.29 | 5.59 | 74.1 | 104
NK-92 (IL-2 2.5 ng/mL) [6] | -11.7 | -11 | 17.2 | 50.3 | 103
NK-YS (IL-2 2.5 ng/mL) [7] | -1.58 | -1.32 | 5.2 | 5.35 | 97.7
NKL (IL-2 2.5 ng/mL) [8] | -9.29 | 8.69 | 4.48 | 69.2 | 97.8
SNK-6 (IL-2 2.5 ng/mL) [9] | 10.2 | 3.22 | 2.33 | 48.9 | 97.7
YT (IL-2 2.5 ng/mL) [10] | -0.7 | -1.17 | 5.18 | 22.7 | 99
[1] | -3.35 | 4.92 | 2.56 | 20.9 | 96.8
[11] | -3.78 | -2.13 | -1.5 | 3.37 | 92.1
[12] | -5.08 | -13.3 | -0.24 | -2.95 | 89.9
[13] | -14.6 | -2.22 | 5.41 | 12 | 86.3
[14] | -13.1 | -3.83 | 0.14 | 15.8 | 96

Details | drug sensitivity score
DERL-7 (IL-2 2.5 ng/mL) [16] | 6.53
IMC-1 (IL-2 20 ng/mL) [17] | 5.83
KAI3 (IL-2 2.5 ng/mL) [18] | 13
KHYG-1 (IL-2 2.5 ng/mL) [19] | 14.7
NK-92 (IL-2 2.5 ng/mL) [20] | 12
NK-YS (IL-2 2.5 ng/mL) [21] | 6.2
NKL (IL-2 2.5 ng/mL) [22] | 13.9
SNK-6 (IL-2 2.5 ng/mL) [23] | 11.3
YT (IL-2 2.5 ng/mL) [24] | 9.03
[15] | 8.67
[25] | 5.57
[26] | 4.76
[27] | 6.79
[28] | 7.93
